Data set [1] is described as follows: Stability on storage at 40° C./75% RH (XRPD, HPLC purity). In kind it is physicochemical. The settings on record: 6 months of storage at 40° C./75% RH. An excerpt:
[…] No significant thermal events were seen before degradation began for both the phosphate salt and the 1-hydroxy-2-naphthoate salts.

Data set [2] can be described thus: Pharmacokinetics in rat after IV and PO administration. The format is in vivo, male Sprague-Dawley rats. The conditions noted are these: mean ± SD. On the procedure: Compound I was used in the rat investigation. An intravenous (IV) and oral (PO) dose of Compound I (1.0 and 10 mg/kg, respectively) was prepared. The IV dose was solubilized in 50% PEG300 to yield a final concentration of 1.0 mg/mL with a final pH of 5.13. The PO dose was suspended in 0.5% methylcellulose at a concentration of 2.0 mg/mL with a final pH of 2.70.
(§1) A total of six male Sprague-Dawley rats (n=3/dosing group) from Charles River Laboratories (Hollister, Calif.), three male beagle dogs from Marshall BioResources (North Rose, N.Y.) and three male rhesus monkeys were utilized. […]
(§2) All animals were dosed based on individual weights with a PO gavage volume of 5.0 mL/kg and an IV bolus dose volume of 1.0 mL/kg. […] At collection times, urine volume and water consumption was recorded. […]
(§3) Plasma and urine samples were analyzed for Compound I concentration using a liquid chromatography tandem mass spectrometry (LC/MS/MS). […] The peak areas of the m/z 411→250 product ion (Compound I) were measured against those of the m/z 470→342 product ion (N-(2-(5-chloropyridin-2-ylcarbaomoyl)-4-methoxyphenyl)-4-(N,N-dimethylcarbamimidoyl)-2-fluorobenzamide) in positive ion mode. […]
(§4) Sample Compound I concentrations below the lower limit of quantitation (LLQ) were reported as <0.500 ng/mL. […]

A short description of data set [3]: Thermodynamic aqueous solubility by HPLC (filtration method). In kind it is physicochemical. The settings on record: Table 8, listed as Free base. The procedure:
The aqueous thermodynamic solubility of selected salt forms was measured using the filtration method as described in Example 10.
The suspension was equilibrated at 25° C. for 24 hours then the pH was measured. The suspension was then filtered through a glass fiber C filter into a 96 well plate. The filtrate was then diluted by a factor of 101. Quantitation was by HPLC with reference to a standard solution of approximately 0.1 mg/mL in DMSO. Different volumes of the standard, diluted and undiluted sample solutions were injected. The solubility was calculated using the peak areas determined by integration of the peak found at the same retention time as the principal peak in the standard injection.

The nature of data set [4]: Pharmacokinetics in dog after IV and PO administration. The format is in vivo, male beagle dogs. The settings on record: PO 5 mg/kg, dose-normalized AUC(0-inf), mean ± SD. On the procedure: (§5) For the dog and monkey study, Compound I was also used. An IV and PO dose of Compound I (1.0 and 5.0 mg/kg, respectively) was prepared. The IV dose was formulated similarly to that used in the rat study (50% PEG300 in water). The PO dose was suspended in 0.5% methylcellulose at a concentration of 1.0 mg/mL with a final pH of approximately 3.50.
as §1, §2, §3, §4

A short description of data set [5]: Pharmacokinetics in monkey after IV and PO administration. The format is in vivo, male rhesus monkeys. The settings on record: PO 5 mg/kg, dose-normalized AUC(0-inf), mean ± SD. The procedure: as §5, §1, §2, §3, §4

The Aqueous solubility is how much of the substance goes into solution per volume. With `O=C(NCc1cn(-c2ccc(-n3ccccc3=O)cc2)cn1)c1ccc(Cl)s1` [Compound I, 5-chloro-N-((1-(4-(2-oxopyridin-1(2H)-yl)phenyl)-1H-imidazol-4-yl)methyl)thiophene-2-carboxamide], the physical stability entry in data set [1] is reported as “physically stable”. Also, in data set [2] (IV 1 mg/kg), the “Dose excreted unchanged in urine” value is 0.248 ± 0.019%. In addition, the AUC/D in data set [2] (PO 10 mg/kg, dose-normalized AUC(0-inf)) turned out to be 6859 ± 1249 kg·h/mL; in data set [4] it was 1095 ± 295 kg·h/mL; in data set [5] it was 8430 ± 3449 kg·h/mL. For the same molecule, in data set [3] (filtration method, water, 25° C., 24 hours), the “Aqueous solubility” value was found to be 0.8 µg/mL. In addition, the pH in data set [3] (pH of the solubility suspension) was 7.8.
